Experimental data from patent publication US11352350B2, “IRAK degraders and uses thereof” (Kymera Therapeutics, Inc., priority 2018, dated 2022).
Read-outs that look alike come from different tables or passages of the source.

Assays:
OCI-LY10 = experiment: CTG Cell Viability Assay - OCI-LY10; type: cell-based, human; conditions: OCI-LY10, 4 days, read-out: CTG Cell Viability Assay - OCI-LY10: Average external-IC50
How it was run: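 Viability read by CellTiter-Glo luminescence after 4 days at 37° C under 5% CO2 with compound (top 10 μM final, 1:3 steps, 9 doses, DMSO 0.2%). Three-parameter logistic fit gave IC50.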

IRAK4 = IRAK4 (Homo sapiens (Human), UniProt Q9NWZ3); experiment: IRAK4 MSD degradation in OCI-LY10; type: cell-based
Chain of IRAK4 (Q9NWZ3 whole entry): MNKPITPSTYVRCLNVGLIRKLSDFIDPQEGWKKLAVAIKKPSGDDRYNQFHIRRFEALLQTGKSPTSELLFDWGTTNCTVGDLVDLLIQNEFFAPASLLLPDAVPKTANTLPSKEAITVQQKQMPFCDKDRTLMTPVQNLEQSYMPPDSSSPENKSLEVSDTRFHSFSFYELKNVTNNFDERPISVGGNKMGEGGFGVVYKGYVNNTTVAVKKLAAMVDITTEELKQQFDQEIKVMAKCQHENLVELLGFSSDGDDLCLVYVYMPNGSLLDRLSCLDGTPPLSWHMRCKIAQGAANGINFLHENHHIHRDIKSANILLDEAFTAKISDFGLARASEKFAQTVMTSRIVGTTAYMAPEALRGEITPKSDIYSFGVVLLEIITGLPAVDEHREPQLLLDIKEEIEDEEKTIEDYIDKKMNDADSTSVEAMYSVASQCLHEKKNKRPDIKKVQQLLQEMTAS
How it was run: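 Remaining IRAK4 quantified by electrochemiluminescent MSD sandwich assay with two anti-IRAK4 antibodies. Compounds were dosed as 8 concentrations in 1:3 steps from a 1 to 10 μM final top on OCI-LY10 cells, incubated 4 to 24 h at 37° C. under 5% CO2. DC50 fitted with a three-parameter logistic curve.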

[1] = OCI-LY10, 4 hrs, MSD, read-out: IRAK4 MSD degradation in OCI-LY10 at 4 hrs: Average external-Abs DC50
[2] = OCI-LY10, 24 hrs, MSD, read-out: IRAK4 MSD degradation in OCI-LY10 at 24 hrs: Average external-Abs DC50
[3] = OCI-LY10, 4 hrs, read-out: IRAK4 MSD degradation in OCI-LY10 at 4 hrs: DC50
[4] = OCI-LY10, 24 hrs, read-out: IRAK4 MSD degradation in OCI-LY10 at 24 hrs: DC50

Compound	IC50 (OCI-LY10; Homo sapiens, OCI-Ly10, 96 h) [nM]	DC50 (IRAK4; [1]) [nM]	DC50 (IRAK4; [2]) [nM]	DC50 (IRAK4; [3]) [nM]	DC50 (IRAK4; [4]) [nM]	IC50 (OCI-LY10) [nM]
CN(CCCOCCCc1cccc2c1n(C)c(=O)n2[C@H]1CCC(=O)NC1=O)C[C@H]1CC[C@H](n2cc(NC(=O)c3coc(-c4ccnc(NCC5CC5)c4)n3)c(C(F)F)n2)CC1 (single isomer, unassigned) [I-306]	> 1000	< 10				
CN(CCCc1ccc(CNc2cccc3c2C(=O)N(C2CCC(=O)NC2=O)C3=O)cc1)C[C@H]1CC[C@H](n2cc(NC(=O)c3cnn4ccc(N5C[C@H]6C[C@@H]5CO6)nc34)c(C(F)F)n2)CC1 (stereo partly drawn) [I-361]	500 to 1000	> 1000	10 to 100			
O=C1CCC(N2C(=O)c3cccc(N[C@H]4C[C@H](OC5CCN(C[C@H]6CC[C@H](n7cc(NC(=O)c8cnn9ccc(N%10CCOCC%10)nc89)c(C(F)F)n7)CC6)CC5)C4)c3C2=O)C(=O)N1 (stereo partly drawn) [I-506]	500 to 1000			10 to 100	< 10	
CN(C(=O)c1cnn2ccc(N3CCOCC3)nc12)c1cn([C@H]2CC[C@H](CN3CCC(OCCCNc4cccc5c4C(=O)N(C4CCC(=O)NC4=O)C5=O)CC3)CC2)nc1C(F)F (stereo partly drawn) [I-501]	50 to 100			> 1000	> 1000	
CN(C[C@H]1CC[C@H](n2cc(NC(=O)c3coc(-c4ccnc(NCC5CC5)c4)n3)c(C(F)F)n2)CC1)C1CCN(Cc2ccnc3c2c2ccccc2n3C2CCC(=O)NC2=O)CC1 (stereo partly drawn) [I-241]	500 to 1000	10 to 100				
CN(CCCOCCCNc1cccc2c1C(=O)N(C1CCC(=O)NC1=O)C2=O)C[C@H]1CC[C@H](n2cc(NC(=O)c3cnn4ccc(NCC5CC5)nc34)c(C(F)F)n2)CC1 (stereo partly drawn) [I-437]	100 to 500	10 to 100	10 to 100			
CC[C@@H]1[C@H](F)C(=O)N[C@@H]1COc1ncc(C#C[C@H]2CC[C@H](CN3CCC(OCCC#Cc4ccc([C@H]5CN(C6CCC(=O)NC6=O)C(=O)O5)cc4)CC3)CC2)c2cc(C(N)=O)c(OC)cc12 (stereo partly drawn) [I-206]	> 1000	10 to 100	10 to 100			
COc1cc(C(=O)NCCCCCCN(C)C[C@H]2CC[C@H](n3cc(NC(=O)c4coc(-c5ccnc(NCC6CC6)c5)n4)c(C(F)F)n3)CC2)ccc1NC(=O)[C@@H]1N[C@@H](CC(C)(C)C)[C@](C#N)(c2ccc(Cl)cc2F)[C@H]1c1cccc(Cl)c1F [I-140]		> 1000	> 1000			> 1000
Cn1c(=O)n(C2CCC(=O)NC2=O)c2ccc(CN3CCC(CCCN4CCC(n5cc(NC(=O)c6coc(-c7ccnc(NCC8CC8)c7)n6)c(C(F)F)n5)CC4)CC3)cc21 (stereo not drawn) [I-254]	100 to 500	10 to 100				
O=C1CCC(N2C(=O)c3cccc(NC4CCN(C[C@H]5CC[C@H](n6cc(NC(=O)c7cnn8ccc(N9CCOCC9)nc78)c(C(F)F)n6)CC5)CC4)c3C2=O)C(=O)N1 (stereo partly drawn) [I-218]	> 1000	100 to 1000	100 to 1000			
CN(C(=O)CCCNc1cccc2c1C(=O)N(C1CCC(=O)NC1=O)C2=O)C1CCN(C[C@H]2CC[C@H](n3cc(NC(=O)c4cnn5ccc(N6C[C@H]7C[C@@H]6CO7)nc45)c(C(F)F)n3)CC2)CC1 (stereo partly drawn) [I-366]	< 50	< 10				
Cn1c(=O)n(C2CCC(=O)NC2=O)c2cccc(CCCOCCCN3CCN([C@H]4CC[C@H](Nc5ncnc6ccc(CC#N)cc56)CC4)CC3)c21 (stereo partly drawn) [I-269]	> 1000	> 1000	> 1000			
Cc1c[nH]c2ncnc(N[C@H]3CC[C@H](N4CCN(C(=O)COCCOCCOCCOCCCc5cccc6c5n(C)c(=O)n6C5CCC(=O)NC5=O)CC4)CC3)c12 (stereo partly drawn) [I-25]	> 1000	> 1000	> 1000			
Cn1c(=O)n(C2CCC(=O)NC2=O)c2ccc(CCCOCCOCCOCCOCC(=O)N3CCN([C@H]4CC[C@H](Nc5ncnn6ccc(C7CCOCC7)c56)CC4)CC3)cc21 (stereo partly drawn) [I-20]	> 1000	> 1000	> 1000			
CN(CCCOCCCc1cccc2c1C(=O)N(C1CCC(=O)NC1=O)C2=O)C[C@H]1CC[C@H](n2cc(NC(=O)c3coc(-c4ccnc(NCC5CC5)c4)n3)c(C(F)F)n2)CC1 (stereo partly drawn) [I-167]	100 to 500	100 to 1000				
O=C1CCC(N2C(=O)c3cccc(NCCOCCCN4CCN(c5ncc(-n6cc(NC(=O)c7cnn8ccc(N9C[C@H]%10C[C@@H]9CO%10)nc78)c(C(F)F)n6)cn5)CC4)c3C2=O)C(=O)N1 (stereo partly drawn) [I-474]	< 50			100 to 1000	10 to 100	

Compound	IC50 (OCI-LY10; Homo sapiens, OCI-Ly10, 96 h) [nM]	DC50 (IRAK4; [1]) [nM]	DC50 (IRAK4; [2]) [nM]	DC50 (IRAK4; [3]) [nM]	DC50 (IRAK4; [4]) [nM]	IC50 (OCI-LY10) [nM]
C[C@@H]1CN(c2ccn3ncc(C(=O)Nc4cn([C@H]5CC[C@H](CN6CCC(OCCCc7cccc8c7n(C)c(=O)n8C7CCC(=O)NC7=O)CC6)CC5)nc4C(F)F)c3n2)C[C@H](C)O1 (stereo partly drawn) [I-275, N-[3-(difluoromethyl)-1-[4-[[4-[3-[1-(2,6-dioxo-3-piperidyl)-3-methyl-2-oxo-benzimidazol-4-yl]propoxy]-1-piperidyl]methyl]cyclohexyl]pyrazol-4-yl]-5-[(2R,6S)-2,6-dimethylmorpholin-4-yl] pyrazolo[1,5-a] pyrimidine-3-carboxamide]	> 1000	10 to 100				
CN(C[C@H]1CC[C@H](n2cc(NC(=O)c3coc(-c4ccnc(NCC5CC5)c4)n3)c(C(F)F)n2)CC1)C1CCN(Cc2cccc3c2C(=O)N(C2CCC(=O)NC2=O)C3=O)CC1 (stereo partly drawn) [I-169]	> 1000	< 10				
O=C1CCC(N2C(=O)c3cccc(CNC4CC5(CCN(C[C@H]6CC[C@H](n7cc(NC(=O)c8cnn9ccc(N%10C[C@H]%11C[C@@H]%10CO%11)nc89)c(C(F)F)n7)CC6)CC5)C4)c3C2=O)C(=O)N1 (stereo partly drawn) [I-360]	> 1000	10 to 100				
O=C1CCC(N2C(=O)c3cccc(N4CCC(CCN5CCC(n6cc(NC(=O)c7cnn8ccc(N9CCOCC9)nc78)c(C(F)F)n6)CC5)CC4)c3C2=O)C(=O)N1 (stereo not drawn) [I-227]	< 50	100 to 1000				
CN(CCCOC1CCN(C[C@H]2CC[C@H](n3cc(NC(=O)c4cnn5ccc(N6CCOCC6)nc45)c(C(F)F)n3)CC2)CC1)c1cccc2c1C(=O)N(C1CCC(=O)NC1=O)C2=O (stereo partly drawn) [I-212]	> 1000	10 to 100				
NC(=O)c1nn([C@H]2CC[C@H](C(=O)NCCOCCOCCNc3cccc4c3C(=O)N(C3CCC(=O)NC3=O)C4=O)CC2)cc1NC(=O)c1coc(-c2ccnc(NCC(F)(F)F)c2)n1 (single isomer, unassigned) [I-13, N-(3-carbamoyl-1-((1r,4r)-4-((2-(2-(2-((2-(2,6-dioxopiperidin-3-yl)-1,3-dioxoisoindolin-4-yl)amino)ethoxy)ethoxy)ethyl)carbamoyl)cyclohexyl)-1H-pyrazol-4-yl)-2-(2-((2,2,2-trifluoroethyl)amino)pyridin-4-yl)oxazole-4-carboxamide]	> 1000	> 1000				
Cn1c(=O)n(C2CCC(=O)NC2=O)c2cccc(CN3CCC4(CC3)CN(C[C@H]3CC[C@H](n5cc(NC(=O)c6coc(-c7ccnc(NCC8CC8)c7)n6)c(C(F)F)n5)CC3)C4)c21 (stereo partly drawn) [I-244]	100 to 500	< 10				
N#CCc1ccc2c(NC3CCC(N4CCN(C(=O)COCCOCCOCCNc5cccc6c5C(=O)N(C5CCC(=O)NC5=O)C6=O)CC4)CC3)ncnc2c1 (stereo not drawn) [I-51]	> 1000	> 1000				
O=C1CCC(n2c3cccc(CCCOC4CCN(C[C@H]5CC[C@H](n6cc(NC(=O)c7cnn8ccc(N9CCOCC9)nc78)c(C(F)F)n6)CC5)CC4)c3c3cccnc32)C(=O)N1 (stereo partly drawn) [I-196]	> 1000	10 to 100				
CN(Cc1ccc(OCCCNc2cccc3c2C(=O)N(C2CCC(=O)NC2=O)C3=O)nc1)C[C@H]1CC[C@H](n2cc(NC(=O)c3cnn4ccc(N5CCOCC5)nc34)c(C(F)F)n2)CC1 (stereo partly drawn) [I-477, N-(3-(difluoromethyl)-1-((1r,4r)-4-((((6-(3-((2-(2,6-dioxopiperidin-3-yl)-1,3-dioxoisoindolin-4-yl)amino)propoxy)pyridin-3-yl)methyl)(methyl)amino)methyl)cyclohexyl)-1H-pyrazol-4-yl)-5-morpholinopyrazolo[1,5-a] pyrimidine-3-carboxamide]	500 to 1000			10 to 100	10 to 100	
O=C1CCC(n2c(=O)oc3c(CCCOC4CCN(C[C@H]5CC[C@H](n6cc(NC(=O)c7cnn8ccc(N9CCNCC9)nc78)c(C(F)F)n6)CC5)CC4)cccc32)C(=O)N1 (stereo partly drawn) [I-165]	500 to 1000	10 to 100				
CN(C[C@H]1CC[C@H](n2cc(NC(=O)c3cnn4ccc(N5CCOCC5)nc34)c(C(F)F)n2)CC1)C1CCC(N(C)c2cccc3c2C(=O)N(C2CCC(=O)NC2=O)C3=O)CC1 (stereo partly drawn) [I-222]	100 to 500	10 to 100				
O=C1CCC(N2C(=O)c3cccc(NCCOC[C@H]4CC[C@H](n5cc(NC(=O)c6cnn7ccc(N8C[C@H]9C[C@@H]8CO9)nc67)c(C(F)F)n5)CC4)c3C2=O)C(=O)N1 (stereo partly drawn) [I-369]	100 to 500	> 1000	> 1000			
CN1C(=O)C(C2CCC(=O)NC2=O)c2cccc(CCCOC3CCN(C[C@H]4CC[C@H](n5cc(NC(=O)c6cnn7ccc(N8CC9(COC9)C8)nc67)c(C(F)F)n5)CC4)CC3)c21 (stereo partly drawn) [I-287]	> 1000	< 10				
O=C1CCC(N2C(=O)c3cccc(NCCCCOC4CCN(C[C@H]5CC[C@H](n6cc(NC(=O)c7coc(-c8ccnc(NCC9CC9)c8)n7)c(C(F)F)n6)CC5)CC4)c3C2=O)C(=O)N1 (stereo partly drawn) [I-170]	< 50	10 to 100				
CN(CC1CCC(n2cc(NC(=O)c3cnn4ccc(N5C[C@H]6C[C@@H]5CO6)nc34)c(C(F)F)n2)CC1)[C@H]1C[C@H](Nc2cccc3c2C(=O)N(C2CCC(=O)NC2=O)C3=O)C1 (stereo partly drawn) [I-457]	> 1000			100 to 1000	> 1000	
